Assay results from patent US20250064760A1, “INTRACANALICULAR INSERT COMPRISING A NON-STEROIDAL ANTI-INFLAMMATORY AGENT” (OCULAR THERAPEUTIX, INC., priority 2022, published 2025).
Converted amounts (≈) assume the structure as drawn. “And” between values parts separate entries of the source, which are not always exact repeats. Identical values can stand only once.

Assays:
[1] = aqueous suspension at 0.1%; cited from earlier work
[2] = cited from earlier work
Nepafenac solubility = assay type: physicochemical; details: aqueous buffer; PBS, pH 7.2 at 37° C.
Experimental: Nepafenac is a monocarboxylic acid amide that is amfenac in which the carboxylic acid group has been converted into the corresponding carboxamide. Nepafenac is yellow crystalline or powdery substance practically insoluble in water (14 mcg/mL). Nepafenac is soluble in organic solvents such as ethanol, DMSO, and dimethyl formamide (DMF). The solubility of nepafenac in ethanol is approximately 0.5 mg/mL and approximately 30 mg/ml in DMSO and DMF. An aqueous suspension at 0.1% gives an average pH of 6.75. The coefficient partition n-octanol/water is 128. […] Nepafenac is an achiral substance and there are no possible variations in the stereochemical configuration.
Nepafenac solubility testing in PBS, pH 7.2 at 37° C. is approximately 102 mcg/mL.

[3] = cited from earlier work; remark: listed apart in the source
[4] = molecular target: T1, cyclooxygenase-2 (COX-2) enzyme (Homo sapiens, UniProt P35354); details: Walters et al., 2007; cited from earlier work
T1 sequence (P35354 18-604): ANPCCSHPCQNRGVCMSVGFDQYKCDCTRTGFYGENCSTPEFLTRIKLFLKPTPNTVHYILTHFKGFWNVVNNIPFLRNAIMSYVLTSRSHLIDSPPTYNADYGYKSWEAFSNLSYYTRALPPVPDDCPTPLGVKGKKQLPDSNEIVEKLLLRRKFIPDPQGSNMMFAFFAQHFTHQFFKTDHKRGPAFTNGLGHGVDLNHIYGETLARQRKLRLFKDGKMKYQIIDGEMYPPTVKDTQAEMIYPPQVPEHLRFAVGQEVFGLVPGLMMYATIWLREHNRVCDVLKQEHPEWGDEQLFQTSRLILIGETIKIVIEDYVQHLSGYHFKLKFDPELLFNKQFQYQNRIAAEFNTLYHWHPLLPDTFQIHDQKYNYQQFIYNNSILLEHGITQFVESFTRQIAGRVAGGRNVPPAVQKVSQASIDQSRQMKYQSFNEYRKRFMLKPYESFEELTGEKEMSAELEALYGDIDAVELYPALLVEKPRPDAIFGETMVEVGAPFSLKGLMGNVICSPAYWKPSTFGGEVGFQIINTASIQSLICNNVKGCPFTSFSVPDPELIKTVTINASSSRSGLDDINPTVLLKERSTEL

solubility (Nepafenac solubility)	Compound	average pH of aqueous suspension [1]	solubility in DMF ([2]; DMF)	solubility in DMSO ([2]; DMSO)	solubility in ethanol ([2]; ethanol)	solubility in water ([2]; water)	coefficient partition n-octanol/water [3]	IC50 [4]
~102 µg/mL (≈ 401 µM)	NC(=O)Cc1cccc(C(=O)c2ccccc2)c1N [Nepafenac, 2-(2-amino-3-benzoylphenyl)acetamide]	6.75	approximately 30 mg/ml	approximately 30 mg/ml	approximately 0.5 mg/mL	14 µg/mL (≈ 55.1 µM)	128	–
–	Nc1c(CC(=O)O)cccc1C(=O)c1ccccc1 [amfenac]	–	–	–	–	–	–	~1.76 nM and 1.76 nM
